Laboratory results: the METLIN SMRT retention time set (Domingo-Almenara et al. 2019)

Assay: gradient 5% acetonitrile 3 min, to 50% in 2 min, to 85% in 15 min, held 3 min, 100 µL/min
Conditions: column: Zorbax Extend-C18 2.1 x 50 mm; eluents: water / acetonitrile, 0.1% formic acid
Method in brief: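 Values are retention times taken from adduct peaks that software picked and an analyst inspected. The pure standards were run as mixtures of ~100 molecules on HPLC linked to a quadrupole time-of-flight mass spectrometer, in positive and negative ionization mode. A Zorbax Extend-C18 column (2.1 × 50 mm, 1.8 μm) was used at 100 μL/min with water and acetonitrile, each including 0.1% formic acid.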

RP-LC retention time [s] | Compound
609 | COc1ccc(OC)c(Nc2nc(NCCO)c3cnn(C)c3n2)c1
738 | Cc1ccc(C)c(NC(=O)CC2COc3ccccc3NC2=O)c1 (configuration not stated)
668 | CN1C(=O)c2cccn2CC1CNS(=O)(=O)c1ccccc1 (configuration not stated)
669 | CN1C(=O)CCC2(CNC(=O)c3n[nH]c(=O)c4ccccc34)CCC=C12 (configuration not stated)
630 | O=C(CSc1ncc(-c2ccccc2)[nH]1)N1CCCc2ccccc21
864 | O=C(C1=NN(Cc2ccccc2)c2cc(Cl)ccc2S1(=O)=O)N1CCOCC1
750 | CCCC(NC(=O)CCc1ccccc1OC)C(=O)Nc1nc2ccccc2[nH]1 (configuration not stated)
835 | O=C(Nc1ccccc1NC(=O)c1ccccc1C(F)(F)F)c1cccs1
559 | COCC1(O)CCOC2(CCN(Cc3ccc(C)cc3C)CC2)C1 (configuration not stated)
1010 | CCCCNC(=O)C1CCN(C(=O)c2cc3ccsc3n2Cc2ccc(Cl)cc2)CC1
1060 | Cc1ccc(-c2nc(N3CC4(C)CC3CC(C)(C)C4)c3ccccc3n2)cc1 (configuration not stated)
881 | Cc1ccc(Nc2c(-c3ccccc3)nc3ccc(Br)cn23)cc1
866 | O=C(Cn1c(=O)oc2ccccc21)N1CCCc2ccccc21
875 | CCOC(=O)c1cccc(Nc2c(-c3ccccc3)nc3cnccn23)c1
1200 | CCCCOc1ccc(-c2nc(C3CC(=O)N(c4ccc(OC)cc4)C3)no2)cc1 (configuration not stated)
1060 | CCN1C(=O)COc2ccc(-c3noc(-c4ccc(CS(=O)(=O)c5ccccc5)cc4)n3)cc21
1130 | CN(c1nc(-c2ccc(C(C)(C)C)cc2)nc2ccccc12)C1CCCCC1
569 | O=C(Cn1ccc2ccn(Cc3cccnc3)c2c1=O)N1CCOCC1
867 | Cc1cccc(N2CCN(C(=O)C3CCc4sc(C(=O)N(C)C)cc4C3)CC2)c1 (configuration not stated)
977 | CN(CCc1noc(-c2ccccc2)n1)C(=O)Nc1cccc(Br)c1
603 | CCCN1CCn2cc(C(=O)NC(C)c3ccccc3)nc2C1 (configuration not stated)
968 | CCS(=O)(=O)N1CC(=O)N(c2ccc(C)c(F)c2)C(C)(C(=O)NC2CCCCCC2)C1 (configuration not stated)
948 | COC(=O)c1ccccc1Nc1c(-c2ccc(OC)cc2)nc2cnccn12

RP-LC retention time [s] | Compound
996 | Cc1cc(C)c(C(=O)N2CCCC(C(=O)N3CCN(c4cccc(C)c4C)CC3)C2)[nH]1 (configuration not stated)
644 | Cc1cc(=O)n(CC(=O)Nc2ccc3c(c2)OCO3)c(N2CCOCC2)n1
823 | CC(C)c1ccc(CNC(=O)c2ccc3c(c2)nc2n3CCN(C(C)C)C2=O)cc1
905 | COc1ccc(S(=O)(=O)Cc2nc(-c3ccccc3Br)no2)cc1
938 | CCc1csc(-c2ccc(N3CCN(C(=O)c4nccc5ccccc45)CC3)nc2)n1
592 | O=C(Nc1ccc2c(c1)OCCO2)N1CCC(Cc2nc(-c3cccnc3)n[nH]2)C1 (configuration not stated)
825 | COC(=O)CN1N=C(C(=O)N2CCC(C)CC2)S(=O)(=O)c2ccccc21
1140 | Clc1nccc2c1ccc1ccccc12
960 | CCCn1cc(S(=O)(=O)Nc2cc(C)ccc2C)c2cccnc21
691 | COCCOC1CCOC2(CCN(C(=O)c3cccs3)CC2)C1 (configuration not stated)
666 | COCCC(=O)N1CCN(c2ncccc2-c2nnc(C(C)C)o2)CC1
1290 | O=C(Nc1ccc(Cl)cc1)C1CCCN(c2nc3ccccc3nc2C(F)(F)F)C1 (configuration not stated)
648 | CCC1CN(C(=O)N2CCC(C(=O)NCCCN3CCOCC3)CC2)c2cc(C)ccc2O1 (configuration not stated)
1090 | CC(C)OC(=O)COC(=O)c1cn(-c2ccc(F)cc2)c(=O)c2ccccc12
712 | CC(C)NC(=O)N1CCN(Cc2nc3cc(C(C)(C)C)ccc3o2)CC1
692 | CC1=C(c2ccc(C)c(C)c2)S(=O)(=O)N=C1N1CCCN(C(=O)c2ccncc2)CC1
571 | Cc1nccn1C1CN(S(=O)(=O)c2cccc3cccnc23)C1
565 | O=C(NCCc1cccnc1)c1cn(-c2cc(N3CCOCC3)ncn2)cn1
682 | Cc1nc2ccccc2c(=O)n1-c1ccc(NC(=O)c2cnccn2)cc1
943 | Cc1csc(-c2ccc(N3CCN(C(=O)c4cc(Cl)ccc4F)CC3)nc2)n1
655 | COc1ccc2[nH]c(=O)c(CCC(=O)NCc3ccco3)cc2c1
1190 | CCc1nc2cc(-c3noc(-c4ccc(Br)o4)n3)ccc2o1
1190 | O=c1cc(N2CCOCC2)oc2c(-c3cccc4c3sc3ccccc34)cccc12

RP-LC retention time [s] | Compound
641 | Cn1cc(C(=O)N2CC(n3cc(COc4ccc(F)cc4)nn3)C2)cn1
634 | COc1ccc(S(=O)(=O)NC2CCN(C(=O)C3CCN(C(C)=O)CC3)CC2)cc1
637 | COC(=O)C1=CN(C2CC2)c2cc(N3CCN(c4ccccn4)CC3)c(F)cc2S1(=O)=O
780 | O=C(Cc1nnc(-c2ccsc2)o1)N1CCc2ccccc2C1
590 | CCc1nc2cccnc2n1CCN1CCN(C(=O)Nc2ccc3c(c2)OCCO3)CC1
628 | COCCN(Cc1ccc(C(C)C)cc1)Cc1cc(=O)n2cc(Cl)ccc2n1
620 | COc1ccc(NC(=O)N2CCN(c3cc(-c4ccc(OC)c(OC)c4)ncn3)CC2)cc1OC
1230 | CCOC(=O)C(CC)n1nc2nc(Nc3ccc(C)cc3)cc(C)n2c1=O (configuration not stated)
724 | Cc1cccc(-c2ncccc2CNS(=O)(=O)c2cccc(F)c2)c1
717 | CCC(=O)N1CCc2cc(N3CC(C(=O)Nc4ccc(C(C)=O)cc4)CC3=O)ccc21 (configuration not stated)
782 | N#Cc1cccc(NC(=O)Cc2csc3nc(-c4ccccc4)cn23)c1
666 | COc1ccccc1N1CCN(CCCCNC(=O)c2ccc3ccccc3c2)CC1
1110 | CCCCCOc1ccc(C(=O)N(Cc2ccc(C)o2)C2CCS(=O)(=O)C2)cc1 (configuration not stated)
763 | Cc1c(C(=O)N(C)C)sc2nc(-c3ccccc3)c(NC(C)(C)C)n12
598 | O=C(C1CCC1)N1CCC(Cc2nc(C3CC3)n[nH]2)CC1
733 | CCOC(=O)c1oc2ccc(S(=O)(=O)N3CCCC(CN4CCCC4)CC3)cc2c1C (configuration not stated)
670 | Cc1nnc2c(=O)n(CC(=O)NCc3cc(F)ccc3F)c3cccnc3n12
1120 | CCn1cc(-c2nc(C)c(C(=O)Nc3cc(F)cc(F)c3)s2)c2cccnc21
867 | COCCCNC(=O)c1ccc(-c2nc3cccnc3n(C3CCCC3)c2=O)cc1
707 | COc1ccc(S(=O)(=O)N2CCCC(C(=O)N3CCN(Cc4ccccc4)CC3)C2)cc1Cl (configuration not stated)
670 | O=C1NC(=O)N2CCSC2(Cc2ccccc2)N1 (configuration not stated)
